In US4935431A, “Substituted 7-amino-thienopyridine derivatives as gastric acid secretion inhibitors” (SmithKline Beckman Intercredit B.V., priority 1988, dated 1990):
Structures can show the parent of a compound that is named as a salt.

Assays:
[1] = tested on: pentagastrin stimulated gastric acid secretion; test: Rat Lumen Perfused Stomach (Pentagastrin Stimulated Gastric Acid Secretion); assay type: in vivo; details: for ED50: iv, read-out: RAT GS ED50; for RAT GS % inhibition @ 10 μmol/kg: i.v.
From the text: B. Rat Lumen Perfused Stomach (Pentagastrin Stimulated Gastric Acid Secretion)
Using a modification of the procedure described by Ghosh & Schild (Br. J. Pharmacology, 13, 54, 1958), the compounds of the following examples were found on i.v. administration to cause an inhibition of pentagastrin stimulated gastric acid secretion as indicated in the following table. Results are given as % inhibition at 10 μmole/kg or ED50 (μM/kg): […]

H^+ K^+ ATPase = molecular target: T1, H^+ K^+ ATPase (Sus scrofa, UniProt P19156); test: K^+ -stimulated ATPase activity in lyophilised gastric vesicles (H/K-ATPase); assay type: biochemical; details: lyophilised gastric vesicles from pig fundic mucosa, 37° C., pH 7.0, 30 minutes
T1 construct: Lyophilised gastric vesicles were prepared from pig fundic mucosa; from tissue; host or cells: pig fundic mucosa (lyophilised gastric vesicles)
Description: A. H^+ K^+ ATPase Activity The effects of a single high concentration (100 μM) of a compound of structure (I) on K^+ -stimulated ATPase activity in lyophilised gastric vesicles was determined. Preferred compounds of structure (I) were also tested over a range of concentrations to determine IC50 values. (i) Preparation of Lyonhilised Gastric Vesicles (H/K-ATPase) Lyophilised gastric vesicles were prepared from pig fundic mucosa after the method of Keeling et. al. (Biochem. Pharmacol., 34, 2967, 1985). (ii) K^+ -Stimulated ATPase Activity K^+ -stimulated ATPase activity was determined at 37° C. in the presence of the following: 10 mM Pipes/Tris buffer pH 7.0, 2 mM MgSO4, 1 mM KCl, 2 mM Na2 ATP and 3 μg protein/ml lyophilised gastric vesicles. After incubation for 30 minutes, the inorganic phosphate hydrolysed from ATP was determined by the method of Yoda and Hokin (Biochem. Biophys. Res. Commun. 40, 880, 1970). Compounds of structure (I) were dissolved in dimethylsulphoxide which up to the highest concentration used had no effect on K^+ -stimulated ATPase activity. The effect of the highest concentration of each compound of structure (I) on the recovery of a standard amount of inorganic phosphate was also determined.

T1 sequence (P19156 2-1034 limits assumed): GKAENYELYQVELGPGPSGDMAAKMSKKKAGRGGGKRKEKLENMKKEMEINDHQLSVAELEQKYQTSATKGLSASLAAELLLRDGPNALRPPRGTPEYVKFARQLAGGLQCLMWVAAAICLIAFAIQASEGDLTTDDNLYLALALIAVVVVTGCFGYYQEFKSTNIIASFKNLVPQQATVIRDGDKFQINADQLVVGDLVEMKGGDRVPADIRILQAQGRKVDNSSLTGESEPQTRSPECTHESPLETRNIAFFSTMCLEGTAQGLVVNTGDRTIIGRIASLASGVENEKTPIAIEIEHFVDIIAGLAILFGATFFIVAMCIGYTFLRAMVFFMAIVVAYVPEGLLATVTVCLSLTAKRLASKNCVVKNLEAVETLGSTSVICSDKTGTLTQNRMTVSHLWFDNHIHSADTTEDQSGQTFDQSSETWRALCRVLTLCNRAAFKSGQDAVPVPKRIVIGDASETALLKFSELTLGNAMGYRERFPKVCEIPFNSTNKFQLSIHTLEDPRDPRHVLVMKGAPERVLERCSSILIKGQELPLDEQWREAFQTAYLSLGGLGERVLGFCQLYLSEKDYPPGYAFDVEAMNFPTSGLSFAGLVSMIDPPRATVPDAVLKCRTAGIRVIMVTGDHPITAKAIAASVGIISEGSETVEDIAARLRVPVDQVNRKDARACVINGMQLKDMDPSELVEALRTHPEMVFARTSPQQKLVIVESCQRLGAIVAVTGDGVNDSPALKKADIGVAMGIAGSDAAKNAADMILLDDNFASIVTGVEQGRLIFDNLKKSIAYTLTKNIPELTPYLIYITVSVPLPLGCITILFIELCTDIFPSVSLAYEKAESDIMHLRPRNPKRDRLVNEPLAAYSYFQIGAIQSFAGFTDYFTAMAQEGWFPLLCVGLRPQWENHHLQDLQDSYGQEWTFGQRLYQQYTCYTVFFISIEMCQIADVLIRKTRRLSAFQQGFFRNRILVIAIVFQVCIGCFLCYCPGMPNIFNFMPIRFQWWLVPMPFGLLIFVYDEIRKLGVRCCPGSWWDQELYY
T1 sequence (P18434 whole entry partner): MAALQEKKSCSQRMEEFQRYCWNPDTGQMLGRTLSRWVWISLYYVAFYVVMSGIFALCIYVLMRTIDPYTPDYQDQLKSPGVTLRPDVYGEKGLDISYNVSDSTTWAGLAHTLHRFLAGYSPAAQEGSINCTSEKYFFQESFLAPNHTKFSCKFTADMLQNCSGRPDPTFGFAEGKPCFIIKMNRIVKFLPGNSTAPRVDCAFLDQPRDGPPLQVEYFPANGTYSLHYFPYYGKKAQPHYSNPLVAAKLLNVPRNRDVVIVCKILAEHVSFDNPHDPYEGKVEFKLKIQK

SMILES	IC50 (H^+ K^+ ATPase)	ED50 [1]	RAT GS % inhibition @ 10 μmol/kg [1]
CCCC(=O)c1cnc2ccsc2c1Nc1ccccc1CCC [Example 14, 6-Butyryl-7-(2-propylphenylamino)thieno[3,2-b]pyridine hydrochloride]	1.2 µM	–	–
CCCC(=O)c1cnc2ccsc2c1Nc1ccc(F)cc1C [Example 12, 6-Butyryl-7-(4-fluoro-2-methylphenylamino)thieno[3,2-b]-pyridine]	4.3 µM	–	38%
CCOC(=O)c1cnc2c(C)csc2c1NCc1ccccc1 [Example 6, Ethyl 3-methyl-7-benzylaminothieno[3,2-b]pyridine-6-carboxylate]	–	–	31%
CCOC(=O)c1cnc2c(C)csc2c1Nc1ccccc1C [Example 5, Ethyl 3-methyl-7-(2-methylphenylamino)thieno[3,2-b]-pyridine-6-carboxylate]	–	11.2 µmol/kg	–
CCCC(=O)c1cnc2ccsc2c1Nc1ccc(O)cc1C [Example 16, 6-Butyryl-(4-hydroxy-2-methylphenylamino)thieno[3,2-b]-pyridine]	0.33 µM	4.03 µmol/kg	–
CCCC(=O)c1cnc2ccsc2c1Nc1ccccc1C(C)C [Example 15, 6-Butyryl-7-(2-isopropylphenylamino)thieno[3,2-b]pyridine]	0.86 µM	–	62%

Further lines, with some results ahead:

IC50 (H^+ K^+ ATPase)	SMILES	ED50 [1]	RAT GS % inhibition @ 10 μmol/kg [1]
1.1 µM	CCCC(=O)c1cnc2ccsc2c1Nc1ccccc1CC [Example 13, 6-Butyryl-7-(2-ethylphenylamino)thieno[3,2-b]pyridine]	3.32 µmol/kg	–
3 µM	CCOC(=O)c1cnc2sccc2c1Nc1ccccc1C [Example 1, Ethyl 4-(2-methylohenylamino)thieno[2,3-b]pyridine-5-carboxylate]	–	32%
4.3 µM	CCOC(=O)c1cnc2ccsc2c1NCc1ccccc1 [Example 4, Ethyl 7-benzylaminothieno[3,2-b]pyridine-6-carboxylate]	–	19%
0.88 µM	CCCC(=O)c1cnc2ccsc2c1Nc1ccccc1C [Example 11, 6-Butyryl-7-(2-methylphenylamino)thieno[3,2-b]pyridine]	–	55%
21 µM	CCOC(=O)c1cnc2c(OC)csc2c1Nc1ccccc1C [Example 7, Ethyl 3-methoxy-7-(2-methylohenylamino)thieno[3,2-b] pyridine-6-carboxylate]	–	–
9.71 µM	CCOC(=O)c1cnc2sccc2c1NCc1ccccc1 [Example 2, Ethyl 4-benzylaminothieno[2,3-b]pyridine-5-carboxylate]	–	13%
13 µM	CCCC(=O)c1cnc2c(OC)csc2c1Nc1ccccc1C [Example 9, 6-Butyryl-7-(2-methylphenylamino)-3-methoxythieno[3,2-b]pyridine]	–	–
0.62 µM	CCOC(=O)c1cnc2ccsc2c1Nc1ccccc1C [Example 3, Ethyl 7-(2-methylphenylamino)thieno[3,2-b]pyridine-6-carboxylate]	9.7 µmol/kg	–
